These results are taken from ChEMBL document CHEMBL5055686, “Discovery of AL-GDa62 as a Potential Synthetic Lethal Lead for the Treatment of Gastric Cancer” (J Med Chem, 2021).

Assay [1] has as its system MCF-10A. The assay is described as follows: Antitumor activity against human spontaneously immortalized wild type MCF-10A cells assessed as cell numbers measured after 48 hrs. The assay is classed as functional, cell-based.
The subject of assay [2] is MCF-10A. The assay can be described thus: Antitumor activity against human spontaneously immortalized CDH-/- MCF10A cells assessed as cell numbers measured after 48 hrs. The assay is classed as functional, cell-based.
Assay [3] is described as follows: Ratio of EC50 for antitumor activity against human spontaneously immortalized wild type MCF10A cells assessed as cell numbers measured after 48 hrs to antitumor activity against human spontaneously immortalized CDH-/- MCF10A cells assessed as cell numbers measured after 48 hrs. Type of assay: functional, MCF-10A.
Where [4] appears, read: Homo sapiens, MCF-10A, 48 h, read-out: EC50.

For `COc1ccc2nc(C)cc(NCc3cccc(C(F)(F)F)c3)c2c1`, the EC50 (usually the concentration that produces a half-maximal response) turned out to be 8 µM in assay [1] (setting [4]) and 7.2 µM in assay [2] (setting [4]). For the same compound, the “Ratio EC50” value in assay [3] is listed as 1.
The matching figures for `COc1ccc2nc(C)cc(NCc3ccc(C)cc3)c2c1`: 22.4 µM, 18.8 µM and 1.2.
As for `COc1ccc2nc(C)cc(NCc3ccncc3)c2c1`, the EC50 was found to be 41.6 µM in assay [1] (setting [4]) and 40.9 µM in assay [2] (setting [4]). Moreover, in assay [3], the “Ratio EC50” value is on record as 1.
Consider `COc1ccc2nc(C)cc(NCc3ccc(N(C)C)cc3)c2c1`, for which the EC50 in assay [1] (setting [4]) was determined as 20 µM; in assay [2] (setting [4]), 15.1 µM. Moreover, in assay [3], the “Ratio EC50” value came to 1.3.
For the compound `CCCCCCCOc1cc(OC)cc2c(NCc3ccc(F)cc3)cc(C)nc12`, the results for the half-maximal effective concentration (EC50) in assay [1] (setting [4]) and in assay [2] (setting [4]) were 3.3 µM and 2.7 µM, respectively. The “Ratio EC50” value in assay [3] is reported as 1.2.
As for `COc1ccc2nc(C)cc(NCC[C@@H]3CNC[C@H]3O)c2c1.O=C(O)C(F)(F)F`, the EC50 entry in assay [1] (mcf-10a) and in assay [2] (mcf-10a) was “Nd(Toxic)” each time.
Turning to `COc1ccc2nc(C)cc(NCC3CCCN(C)C3)c2c1` (stereo not given), the EC50 in assay [1] (setting [4]) came out at 5.8 µM; in assay [2] (setting [4]) it was 6.4 µM.
Turning to `CCCCCCCCOc1ccc2nc(C)cc(NCc3ccc(F)cc3)c2c1`, the EC50 in assay [1] (setting [4]) was found to be 2.2 µM; in assay [2] (setting [4]), 1.8 µM. For the same compound, in assay [3], the “Ratio EC50” value was determined as 1.1.
As to `COc1ccc2nc(C)cc(NCc3cccc(OC(F)F)c3)c2c1`, the EC50 in assay [1] (setting [4]) was determined as 14.3 µM; in assay [2] (setting [4]), 10.3 µM. Moreover, the “Ratio EC50” value in assay [3] is recorded as 1.3.
Regarding `COc1ccc2nc(C)cc(NCc3c(F)cccc3F)c2c1`, the concentration giving a half-maximal response (EC50) in assay [1] (setting [4]) and in assay [2] (setting [4]) was 13.6 µM throughout. In addition, the “Ratio EC50” value in assay [3] was found to be 1.3.
Consider `COc1ccc2nc(C)cc(NCc3ccc(OC(F)F)cc3)c2c1`, for which the 50% effective concentration (EC50) in assay [1] (setting [4]) amounted to 14.7 µM; in assay [2] (setting [4]), 10.4 µM. Also, the “Ratio EC50” value in assay [3] was 1.4.
For the compound `COc1ccc2nc(C)cc(NCc3ccccc3OC)c2c1`, the EC50 in assay [1] (setting [4]) amounted to 29.5 µM; in assay [2] (setting [4]), 25.2 µM. In assay [3], the “Ratio EC50” value is listed as 1.2.
As to `COc1cc2c(NCc3ccc(F)cc3)cc(C)nc2cc1OCCCN1CCCC1`, the EC50 in assay [1] (setting [4]) stood at 2.1 µM; in assay [2] (setting [4]), 1.9 µM. Besides, the “Ratio EC50” value in assay [3] amounted to 1.1.
The matching figures for `COc1ccc2nc(C)cc(NCc3c(F)cccc3C(F)(F)F)c2c1`: 14 µM, 14.2 µM and 1.
Regarding `COc1ccc2nc(C)cc(NC[C@H]3NC[C@H](O)[C@@H]3O)c2c1.O=C(O)C(F)(F)F`, the EC50 result in assay [1] (mcf-10a) and in assay [2] (mcf-10a) was “Nd(Toxic)” each time.
`COc1ccc2nc(C)cc(NCc3ccc(C(C)(C)C)cc3)c2c1`: the EC50 in assay [1] (setting [4]) was found to be 7 µM; in assay [2] (setting [4]), 6.9 µM. Also, the “Ratio EC50” value in assay [3] is on record as 1.
As for `COc1ccc2nc(C)cc(Nc3ccc(F)cc3)c2c1`, the EC50 was 29.8 µM in assay [1] (setting [4]) and 28 µM in assay [2] (setting [4]). The “Ratio EC50” value in assay [3] came out at 1.1.
The matching figures for `COc1ccc2nc(C)cc(NCc3ccc(C(F)(F)F)cc3)c2c1`: 7.6 µM, 7.6 µM and 1.4.
For the compound `COc1ccc2nc(C)cc(NCc3ccc(F)c(C(F)(F)F)c3)c2c1`, the EC50 in assay [1] (setting [4]) was determined as 14.3 µM; in assay [2] (setting [4]) it was 11.3 µM. Further, the “Ratio EC50” value in assay [3] is given as 1.
For `COc1ccc2nc(C)cc(NCc3cccc(F)c3)c2c1` the same measures were 14.7 µM, 11.3 µM and 1.3.
For the compound `CCCCCCCCCCOc1ccc2nc(C)cc(NCc3ccc(F)cc3)c2c1`, the EC50 is 2 µM in assay [1] (setting [4]) and 1.9 µM in assay [2] (setting [4]). In addition, in assay [3], the “Ratio EC50” value was 1.
As for `COc1ccc2nc(C)cc(NCc3ccc(OC)c(F)c3)c2c1`, the figures for the EC50 in assay [1] (setting [4]) and in assay [2] (setting [4]) were 10.3 µM and 9 µM, respectively. The “Ratio EC50” value in assay [3] turned out to be 1.1.
The matching figures for `Cc1cc(NCc2ccc(F)cc2)c2ccccc2n1`: 20.1 µM, 15.4 µM and 1.3.
`COc1cc2c(NCc3ccc(F)cc3)cc(-c3ccc(C)o3)nc2cc1OCCCN1CCCC1`: the EC50 in assay [1] (setting [4]) was 2.1 µM; in assay [2] (setting [4]), 1.8 µM. In addition, the “Ratio EC50” value in assay [3] came out at 1.1.
With `COc1ccc2nc(C)cc(SCc3ccc(F)cc3)c2c1`, the EC50 in assay [1] (setting [4]) was found to be 50.5 µM; in assay [2] (setting [4]), 41 µM. For the same compound, the “Ratio EC50” value in assay [3] is listed as 1.2.
Regarding `Cc1cc(NCc2ccc(F)cc2)c2cc(OCCCCCCN=[N+]=[N-])ccc2n1`, the EC50 stood at 4 µM in assay [1] (setting [4]) and 4.1 µM in assay [2] (setting [4]). In addition, the “Ratio EC50” value in assay [3] is on record as 1.
For `COc1ccc2nc(C)cc(NCc3ccc(F)cc3C(F)(F)F)c2c1`, the half-maximal effective concentration (EC50) in assay [1] (setting [4]) came to 4.2 µM; in assay [2] (setting [4]), 5.2 µM. Besides, the “Ratio EC50” value in assay [3] was 0.8.
Regarding `COc1ccc2nc(C)cc(NCc3ccc(F)cc3F)c2c1`, the values for the EC50 in assay [1] (setting [4]) and in assay [2] (setting [4]) were 15 µM and 11.6 µM, respectively. Moreover, the “Ratio EC50” value in assay [3] is 1.3.
The matching figures for `COc1ccc2nc(C)cc(NCc3ccc(-c4ccccc4)cc3)c2c1`: 2.7 µM, 2.8 µM and 1.
For `COc1ccc2nc(C)cc(Nc3ccccc3)c2c1` the same measures were 15.9 µM, 17.6 µM and 0.9.
The matching figures for `COc1cc2c(NC3CCN(C)CC3)cc(C)nc2cc1OCCCN1CCCC1`: 39.2 µM, 41.1 µM and 1.
With `CCCCCCCOc1cc2nc(C)cc(NCc3ccc(F)cc3)c2cc1OC`, the figures for the EC50 in assay [1] (setting [4]) and in assay [2] (setting [4]) were 2.2 µM and 1.7 µM, respectively.
Take `COc1ccc2nc(-c3ccc(C)o3)cc(NC3CCN(C)CC3)c2c1`: the EC50 in assay [1] (setting [4]) turned out to be 0.8 µM; in assay [2] (setting [4]), 1.1 µM. The “Ratio EC50” value in assay [3] is reported as 0.8.
For `COc1ccc2nccc(NCc3ccc(F)cc3)c2c1` the same measures were 16.4 µM, 13.3 µM and 1.2.
For `COc1ccc2nc(COCCCCCCN=[N+]=[N-])cc(NCc3ccc(F)cc3)c2c1.O=C(O)C(F)(F)F` the same measures were 8.9 µM, 8.4 µM and 1.1.
The matching figures for `COc1ccc2nc(C)cc(NCc3cccc(CO)c3)c2c1`: 24.7 µM, 17.1 µM and 1.4.
Turning to `COc1ccc2nc(C)cc(NCc3cccc(N(C)C)c3)c2c1`, the EC50 in assay [1] (setting [4]) and in assay [2] (setting [4]) was 14 µM each time. Further, the “Ratio EC50” value in assay [3] is given as 1.
As for `COc1ccc2nc(C)cc(NCc3ccc(F)c(OC)c3)c2c1`, the EC50 came to 12.9 µM in assay [1] (setting [4]) and 9.5 µM in assay [2] (setting [4]).
Consider `COc1cccc(CNc2cc(C)nc3ccc(OCCCN4CCCC4)cc23)c1`, for which the EC50 in assay [1] (setting [4]) and in assay [2] (setting [4]) was 3.6 µM throughout. For the same compound, the “Ratio EC50” value in assay [3] was 1.2.
For `Cc1cc(NCc2cccc(C#N)c2)c2cc(OCCCN3CCCC3)ccc2n1`, the 50% effective concentration (EC50) in assay [1] (setting [4]) worked out at 10.3 µM; in assay [2] (setting [4]) it was 8.5 µM. Besides, the “Ratio EC50” value in assay [3] came to 1.2.
For `COc1ccc2nc(C)cc(NCc3ccccc3)c2c1` the same measures were 28.6 µM, 25.9 µM and 1.1.
Take `COc1ccc2nc(C)cc(NCc3cccnc3)c2c1`: the 50% effective concentration (EC50) turned out to be 49.3 µM in assay [1] (setting [4]) and 44.8 µM in assay [2] (setting [4]). The “Ratio EC50” value in assay [3] stood at 1.1.
For `COc1ccc2nc(CO)cc(NC3CCN(C)CC3)c2c1` the same measures were 30.1 µM, 32.3 µM and 0.9.
For `Cc1cc(NCc2ccc(F)cc2)c2cc(OCCCCCCO)ccc2n1` the same measures were 11.3 µM, 8.1 µM and 1.4.
For `COc1ccc2nc(C)cc(NCc3cccc(C#N)c3)c2c1` the same measures were 17.4 µM, 13.4 µM and 1.3.
Regarding `COc1ccc(CNc2cc(C)nc3ccc(OC)cc23)cc1`, the figures for the EC50 in assay [1] (setting [4]) and in assay [2] (setting [4]) were 9.7 µM and 7 µM, respectively. In assay [3], the “Ratio EC50” value is given as 1.4.
The matching figures for `COc1ccc2nc(C)cc(NC3CCN(C)CC3)c2c1`: 7.1 µM, 7.8 µM and 0.9.
On to `COc1ccc2nc(C)cc(NCc3ccccc3CO)c2c1`, for which the EC50 in assay [1] (setting [4]) was determined as 25.9 µM; in assay [2] (setting [4]), 22.9 µM. The “Ratio EC50” value in assay [3] was found to be 1.1.
Consider `COc1ccc2nc(-c3ccc(C)o3)cc(NCc3ccc(F)cc3)c2c1`, for which the 50% effective concentration (EC50) in assay [1] (setting [4]) is 11.1 µM; in assay [2] (setting [4]), 8.3 µM. Besides, in assay [3], the “Ratio EC50” value is 1.4.
The matching figures for `COc1ccc2nc(C)cc(NCc3cccc4ccccc34)c2c1`: 50 µM, 4.1 µM and 12.
Regarding `COc1cc2c(NC3CCN(C)CC3)cc(-c3ccc(C)o3)nc2cc1OCCCN1CCCC1`, the 50% effective concentration (EC50) was found to be 0.5 µM in assay [1] (setting [4]) and 0.2 µM in assay [2] (setting [4]).
Turning to `COc1ccc2nc(C)cc(SCc3ccccc3)c2c1`, the results for the EC50 in assay [1] (setting [4]) and in assay [2] (setting [4]) were 37.1 µM and 30.6 µM, respectively. Moreover, the “Ratio EC50” value in assay [3] worked out at 1.2.
The matching figures for `COc1ccc2nc(C)cc(NCc3cc(F)cc(F)c3)c2c1`: 18.1 µM, 13.3 µM and 1.1.
The matching figures for `CCCCCCOc1ccc2nc(C)cc(NCc3ccc(F)cc3)c2c1`: 9.1 µM, 8.8 µM and 1.
The matching figures for `CCCOc1ccc2nc(C)cc(NCc3ccc(F)cc3)c2c1`: 14.3 µM, 9.8 µM and 1.5.
For the compound `COc1ccc2nc(C)cc(NCc3ccccc3F)c2c1`, the EC50 in assay [1] (setting [4]) was found to be 17 µM; in assay [2] (setting [4]), 14 µM. The “Ratio EC50” value in assay [3] amounted to 1.2.
Consider `COc1cccc(CNc2cc(C)nc3ccc(OC)cc23)c1`, for which the figures for the EC50 in assay [1] (setting [4]) and in assay [2] (setting [4]) were 12.5 µM and 9.7 µM, respectively. For the same compound, in assay [3], the “Ratio EC50” value turned out to be 1.3.
